{"source": "paper PMC12029982", "about": "“The Mechanism of a Novel Mitochondrial-Targeted Icaritin Derivative in Regulating Apoptosis of BEL-7402 Cells Based on the SIRT3 and CypD-Mediated ROS/p38 MAPK Signaling Pathway” (Molecules, 2025)", "key": {"BEL-7402": {"test_system": "BEL-7402", "assay": "MTT assay, antiproliferative activity", "type": "cell-based", "conditions": "Homo sapiens, 48 h drug exposure, mean ± SD", "method": "(§1) Human cancer cell lines BEL-7402, A549, MCF-7, PC-3M, and normal renal cell line HEK293 were bought from the BeNa Culture Collection (Beijing, China). BEL7402, A549, and PC-3M were cultured in RPMI 1640 medium (Gibco, Carlsbad, CA, USA). MCF-7 and HEK293 were cultured in the DMEM medium (Gibco, CA, USA). The medium was supplemented with 10% fetal bovine serum (FBS) (CLARK, San Diego, CA, USA), 100 U/mL penicillin, and 0.1 mg/mL streptomycin (Beyotime, Nanjing, China). The cells were incubated in 5% CO2 at 37 °C.\n(§2) The MTT assay was employed to assess the inhibitory effect of each compound on cell growth. A549, PC-3M, MCF-7, BEL-7402, and HEK293 cells in the logarithmic growth phase were seeded in 96-well culture plates at an inoculum density of 5 × 10^4 cells/mL. After overnight incubation at 37 °C in a 5% CO2 atmosphere, the cells fully adhered to the surface. Different concentrations of sample solutions (0, 3.125, 6.25, 12.5, 25, 50, 100 μmol/L) were added (100 μL) to treat the cells. After 48 h of drug treatment, 10 μL of a 5 mg/mL MTT solution was added to each well and incubated for 4 h at 37 °C. The supernatant was then discarded, and 150 μL of DMSO was added to dissolve the formazan. The mixture was shaken at room temperature for 15 min, and the absorbance (D) value was measured at 490 nm using a Microplate Reader (HBS-ScanY, Nanjing, China). The drug IC50 values were calculated using GraphPad Prism (v10.0). Each cell viability experiment was performed in triplicate."}, "MCF-7": {"test_system": "MCF-7", "assay": "MTT assay, antiproliferative activity", "type": "cell-based", "conditions": "Homo sapiens, MCF7, 48 h drug exposure, mean ± SD", "method": "as §1, §2"}, "PC-3M": {"test_system": "PC-3M", "assay": "MTT assay, antiproliferative activity", "type": "cell-based", "conditions": "Homo sapiens, 48 h drug exposure, mean ± SD", "method": "as §1, §2"}, "A549": {"test_system": "A549", "assay": "MTT assay, antiproliferative activity", "type": "cell-based", "conditions": "Homo sapiens, 48 h drug exposure, mean ± SD", "method": "as §1, §2"}, "[1]": {"test_system": "mitochondria of BEL-7402 cells", "assay": "HPLC analysis of accumulation in mitochondria", "type": "cell-based, human", "conditions": "10 μM", "method": "BEL-7402 cells were cultured in 100 mm Petri dishes. When the cell density reached 90%, the cells were treated with different drugs, all at the same concentration (ICT and Mito-ICT-4 were both set at 10 μM). After 9 h of drug treatment, intracellular mitochondria were isolated from the different drug-treated groups using a mitochondrial isolation kit (Beyotime, Nanjing, China). The mitochondria were resuspended in 200 μL of phosphate-buffered saline (PBS), and an equal volume of anhydrous dichloromethane was added. Ultrasonic extraction was performed three times, and the lower organic phase was collected. Dichloromethane was removed, and the sample was resuspended in 200 μL of 0.1% formic acid in methanol. A 20 μL sample was analyzed and quantified by HPLC. HPLC analysis was conducted using an ALLTECH 26-201 (Jerome, CA, USA) with a flow rate of 1 mL/min. The stationary phase was Agilent ZORBAX SB-C18 (250 mm × 4.6 mm, 5 μm, Santa Clara, CA, USA), and the mobile phase consisted of methanol-0.1% formic acid in water (80:20)."}, "P38": {"test_system": "P38", "assay": "qRT-PCR", "type": "cell-based, human", "conditions": "vs blank control, BEL-7402, p < 0.05", "method": "(§3) Total RNA was extracted from BEL-7402 cells before and after Mito-ICT-4 treatment using the Trizol method. The RNA was then reverse transcribed and used for quantitative real-time PCR (qRT-PCR) analysis. All gene sequences were obtained from the official website of NCBI (http://ncbi.nlm.nih.gov, accessed on 16 December 2023), and primers were designed and synthesized by Sangon Biotech. β-actin was used as an internal reference. To each well, 10 µL of 2 × SGExcel FastSYBR (Sangon Biotech, Shanghai, China) mixture was added, along with 0.4 µL each of forward and reverse primers (F/R), followed by 2 µL of cDNA. The volume was then adjusted to 20 µL with water. The qRT-PCR amplification procedure included the following steps: pre-denaturation at 95 °C for 3 min, denaturation at 95 °C for 15 s, and annealing at 60 °C for 45 s. A total of 45 cycles were performed. Fluorescence signals were collected from 60 °C to 95 °C using an ABI 7500 fluorescence quantitative PCR instrument (ABI, Waltham, MA, USA). Gene expression was calculated using the 2^−ΔΔCt method."}, "MKK6": {"test_system": "MKK6", "assay": "qRT-PCR", "type": "cell-based, human", "conditions": "vs blank control, BEL-7402, p < 0.05", "method": "as §3"}, "DDIT3": {"test_system": "DDIT3", "assay": "qRT-PCR", "type": "cell-based, human", "conditions": "vs blank control, BEL-7402, p < 0.05", "method": "as §3"}, "CypD": {"test_system": "CypD", "assay": "qRT-PCR", "type": "cell-based, human", "conditions": "vs blank control, BEL-7402, p < 0.05", "method": "as §3"}, "SIRT3": {"test_system": "SIRT3", "assay": "qRT-PCR", "type": "cell-based, human", "conditions": "vs blank control, BEL-7402, p < 0.05", "method": "as §3"}, "BEL-7402 cells [2]": {"test_system": "BEL-7402 cells", "assay": "DAPI staining, apoptosis", "type": "cell-based, human", "conditions": "0.625, 1.25, 2.5 μmol/L, 48 h", "method": "BEL-7402 cells in the logarithmic growth phase were seeded in 12-well plates at a density of 1 × 10^5 cells/well. After overnight incubation, the cells were treated with different concentrations of Mito-ICT-4 (0.625, 1.25, and 2.5 μmol/L), and a control group was included. After 48 h of incubation, the cells were fixed with 4% histocyte fixative (Solarbio, Beijing, China) at room temperature for 15 min. After fixation, 500 μL of DAPI staining solution (Solarbio, Beijing, China) was added to each well and incubated at 37 °C for 20 min. The cells were then observed under an inverted fluorescence microscope (EVOS M5000, Waltham, MA, USA)."}, "BEL-7402 cells [3]": {"test_system": "BEL-7402 cells", "assay": "JC-1 staining, mitochondrial membrane potential", "type": "cell-based, human", "conditions": "JC-1, 0.625, 1.25, 2.5 μmol/L, 48 h", "method": "Drug grouping and administration were performed as described in Section 2.5. After 48 h of incubation, 500 μL of JC-1 fluorescent dye (Beyotime, Nanjing, China) was added to each well. The cells were stained at 37 °C for 30 min, after which the dye was discarded. The cells were then washed three times with PBS and observed under an inverted fluorescence microscope."}}, "note": "“Also recorded” adds a separate entry of the source."}
{"smiles": "COc1ccc(-c2oc3c(CC=C(C)C)c(OC(=O)CCCCCCCCCC[P+](c4ccccc4)(c4ccccc4)c4ccccc4)cc(O)c3c(=O)c2O)cc1", "note": "[Mito-ICT-4]", "values": [{"measurement": "IC50", "setting": "BEL-7402", "result": "0.73 ± 0.06", "unit": "µM"}, {"measurement": "IC50", "setting": "MCF-7", "result": "10.8 ± 1.2", "unit": "µM"}, {"measurement": "IC50", "setting": "PC-3M", "result": "11.3 ± 1.55", "unit": "µM"}, {"measurement": "IC50", "setting": "A549", "result": "5.15 ± 0.59", "unit": "µM"}, {"measurement": "fate after entering the mitochondria", "setting": "[1]", "result": "hydrolysis to ICT; also recorded: hydrolyzed to ICT"}, {"measurement": "accumulation in mitochondria relative to ICT", "setting": "[1]; 9 h", "result": "approximately 2.5 times"}, {"measurement": "P38 gene expression level", "setting": "P38", "result": "significantly downregulated"}, {"measurement": "MKK6 gene expression level", "setting": "MKK6", "result": "significantly downregulated"}, {"measurement": "DDIT3 gene expression level", "setting": "DDIT3", "result": "significantly upregulated"}, {"measurement": "CypD gene expression level", "setting": "CypD", "result": "significantly upregulated"}, {"measurement": "SIRT3 gene expression level", "setting": "SIRT3", "result": "significantly downregulated"}, {"measurement": "nuclear morphology, DAPI staining", "setting": "BEL-7402 cells [2]", "result": "nuclei exhibited crumpling and cleavage"}, {"measurement": "mitochondrial membrane potential", "setting": "BEL-7402 cells [3]", "result": "reduction"}]}
